Where two headings read alike, the source gives them in different places.
Test system: progressive prostatic cancer in stage 4 with confirmed bone metastasis

For `[HH]` [hydrogen gas, hydrogen], the PSA value (about 1 month after suction started, hydrogen 6.6% by volume, 60 to 90 minutes/day, with bicalutamide, Flivas OD, initial 92.5) was 12.74 ng/mL, the PSA value (about 2 months after suction started, with internal medicines, before the anticancer agent infusion) was 7.53 ng/mL and the “shade densities at the parts of bone metastasis, whole body scintigraphy” value (about 12 months after suction started, visually inspected, combined therapy) was “a half or less”. For the same compound, the PSA value (about 12.5 months after suction started, with internal medicines, docetaxel infusions and hormone injections) was 1.69 ng/mL.

Source: patent US20200078393A1, “COMPOSITION COMPRISING HYDROGEN GAS FOR SUPPRESSION OR PREVENTION OF CANCER METASTASIS” (MiZ Company Limited, priority 2018, published 2020)
